Consider 1 molecule from patent US20110003805A1, “CONCOMITANT DRUG” (TAKEDA PHARMACEUTICAL COMPANY LIMITED, priority 2008, published 2011).

The experiment relates to TS (thymidine) gene expression in human breast cancer cell line BT-474. The experiment is described as follows: Measurement of expression amount of TS (thymidine) by addition of compound A, TaqMan. In kind it is cell-based. To be noted: BT-474 cells, 100 nmol/L, two days after addition, GAPDH as internal standard (FIG. 4).

Method: Human breast cancer cell line BT-474 (ATCC (American Type Culture Collection) catalog No. HTB-20, Lasfargues EY, In Vitro 15:723-729(1979)), which is a passage cultured HER2 high expressing cell, was treated with trypsin and suspended in RPMI-1640 medium (GibcoInvitrogen) containing 10% bovine fetus serum (GibcoInvitrogen). The cell density of the cell suspension was measured by cell counter Sysmex CDA500, and the cell density was adjusted to 5×10^4 cell/mL using the aforementioned medium. The suspension was dispensed to each well of a 6 well multi-well culture plate (Corning) by 2 mL, and cultured overnight at 37° C. under 5% CO2. […] Using this cDNA as a template, the TS expression amount was measured using TaqMan Gene Expression Assays (Applied Biosystems). […] Ct method (Applied Biosystems) with GAPDH as an internal standard (FIG. 4).

As to `CC(C)(O)CC(=O)NCCn1ccc2ncnc(Nc3ccc(Oc4cccc(C(F)(F)F)c4)c(Cl)c3)c21` [compound A, N-{2-[4-({3-chloro-4-[3-(trifluoromethyl)phenoxy]phenyl}amino)-5H-pyrrolo[3,2-d]pyrimidin-5-yl]ethyl}-3-hydroxy-3-methylbutaneamide], the TS expression amount result is “remarkably decreased”.
